# The source made the active and inactive calls.
# Columns and labels:
# [1] = CRF-BP/CRF-R2 complex antagonists, dose response, cell-based, uHTS hits, 384-well (AID 651639); assay type: functional, Homo sapiens; settings: read-out: IC50_Mean
# [2] = target: T1, Sentrin-specific protease 7 (Homo sapiens, UniProt Q9BQF6); assay type: functional;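 also: Luminescence-based dose-response confirmation of ultra-high-throughput screening hits, measuring inhibition of SENP7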
# T1 sequence (Q9BQF6 whole entry): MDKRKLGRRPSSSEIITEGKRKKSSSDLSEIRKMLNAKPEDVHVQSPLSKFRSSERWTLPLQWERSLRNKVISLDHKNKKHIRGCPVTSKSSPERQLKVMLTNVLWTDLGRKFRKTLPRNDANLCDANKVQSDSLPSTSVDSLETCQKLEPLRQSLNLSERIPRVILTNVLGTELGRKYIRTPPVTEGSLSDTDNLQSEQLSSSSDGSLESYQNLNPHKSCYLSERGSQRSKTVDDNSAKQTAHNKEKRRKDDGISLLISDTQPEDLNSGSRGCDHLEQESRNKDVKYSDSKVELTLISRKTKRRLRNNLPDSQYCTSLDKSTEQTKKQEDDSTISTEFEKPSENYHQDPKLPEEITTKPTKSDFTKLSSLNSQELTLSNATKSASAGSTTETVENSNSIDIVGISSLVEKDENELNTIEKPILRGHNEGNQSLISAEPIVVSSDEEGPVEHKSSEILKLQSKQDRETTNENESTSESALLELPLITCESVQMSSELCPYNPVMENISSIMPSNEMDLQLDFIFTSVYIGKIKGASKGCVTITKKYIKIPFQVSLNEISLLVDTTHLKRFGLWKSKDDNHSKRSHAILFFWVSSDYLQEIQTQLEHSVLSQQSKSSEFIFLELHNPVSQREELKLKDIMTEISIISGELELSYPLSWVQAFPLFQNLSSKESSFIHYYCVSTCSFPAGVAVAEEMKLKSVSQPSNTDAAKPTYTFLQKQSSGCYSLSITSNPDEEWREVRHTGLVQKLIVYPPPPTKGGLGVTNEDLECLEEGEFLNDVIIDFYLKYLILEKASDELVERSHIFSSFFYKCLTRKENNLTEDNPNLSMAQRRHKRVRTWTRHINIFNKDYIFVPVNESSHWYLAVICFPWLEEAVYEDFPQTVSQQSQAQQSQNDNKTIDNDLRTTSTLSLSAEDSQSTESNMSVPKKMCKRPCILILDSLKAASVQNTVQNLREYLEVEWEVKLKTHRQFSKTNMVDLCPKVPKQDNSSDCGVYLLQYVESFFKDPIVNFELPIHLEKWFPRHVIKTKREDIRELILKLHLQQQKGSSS
# [3] = target: T2, Corticotropin-releasing factor receptor 2/Corticotropin-releasing factor-binding protein (Homo sapiens, UniProt P24387+Q13324); assay: Dose Response confirmation of uHTS hits for small molecule antagonists of the CRF-binding protein and CRF-R2 receptor complex.; assay type: functional; settings: read-out: IC50_Mean
# T2 sequence (Q13324 whole entry): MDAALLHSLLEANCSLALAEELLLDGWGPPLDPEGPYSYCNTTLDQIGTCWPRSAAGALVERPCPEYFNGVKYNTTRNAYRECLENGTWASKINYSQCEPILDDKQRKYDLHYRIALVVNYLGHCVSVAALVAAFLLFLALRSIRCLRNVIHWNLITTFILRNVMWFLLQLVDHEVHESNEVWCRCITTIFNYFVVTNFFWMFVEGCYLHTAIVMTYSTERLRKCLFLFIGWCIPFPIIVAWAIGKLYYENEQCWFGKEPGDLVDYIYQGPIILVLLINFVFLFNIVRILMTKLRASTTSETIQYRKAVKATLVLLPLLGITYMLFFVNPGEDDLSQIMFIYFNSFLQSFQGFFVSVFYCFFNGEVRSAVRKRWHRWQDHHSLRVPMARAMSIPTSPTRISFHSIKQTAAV
# T2 sequence (P24387 whole entry): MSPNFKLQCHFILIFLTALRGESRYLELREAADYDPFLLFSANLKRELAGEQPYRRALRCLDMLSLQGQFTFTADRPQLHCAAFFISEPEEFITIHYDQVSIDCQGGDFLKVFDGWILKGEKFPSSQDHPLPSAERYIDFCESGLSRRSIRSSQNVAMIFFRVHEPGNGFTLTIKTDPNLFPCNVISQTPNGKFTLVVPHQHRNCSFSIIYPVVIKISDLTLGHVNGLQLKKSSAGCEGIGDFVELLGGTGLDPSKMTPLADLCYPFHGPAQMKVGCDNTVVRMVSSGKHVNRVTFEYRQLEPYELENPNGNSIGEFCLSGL
# [4] = target: T3, Sentrin-specific protease 8 (Homo sapiens, UniProt Q96LD8); assay type: functional;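 also: luminescence read-out of SENP8 inhibition, dose-response confirmation following an ultra-high-throughput screen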
# T3 sequence (Q96LD8 whole entry): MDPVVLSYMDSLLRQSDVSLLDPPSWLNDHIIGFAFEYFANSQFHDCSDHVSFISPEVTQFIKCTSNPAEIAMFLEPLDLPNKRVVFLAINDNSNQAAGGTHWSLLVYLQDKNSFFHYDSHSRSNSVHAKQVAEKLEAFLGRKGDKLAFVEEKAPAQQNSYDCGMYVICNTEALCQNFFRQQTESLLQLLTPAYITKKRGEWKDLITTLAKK
# [5] = target: T4, Sentrin-specific protease 6 (Homo sapiens, UniProt Q9GZR1); assay type: functional;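 also: Luminescence-based dose-response confirmatory assay of SENP6 inhibition, following up an ultra-high-throughput screen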
# T4 sequence (Q9GZR1 whole entry): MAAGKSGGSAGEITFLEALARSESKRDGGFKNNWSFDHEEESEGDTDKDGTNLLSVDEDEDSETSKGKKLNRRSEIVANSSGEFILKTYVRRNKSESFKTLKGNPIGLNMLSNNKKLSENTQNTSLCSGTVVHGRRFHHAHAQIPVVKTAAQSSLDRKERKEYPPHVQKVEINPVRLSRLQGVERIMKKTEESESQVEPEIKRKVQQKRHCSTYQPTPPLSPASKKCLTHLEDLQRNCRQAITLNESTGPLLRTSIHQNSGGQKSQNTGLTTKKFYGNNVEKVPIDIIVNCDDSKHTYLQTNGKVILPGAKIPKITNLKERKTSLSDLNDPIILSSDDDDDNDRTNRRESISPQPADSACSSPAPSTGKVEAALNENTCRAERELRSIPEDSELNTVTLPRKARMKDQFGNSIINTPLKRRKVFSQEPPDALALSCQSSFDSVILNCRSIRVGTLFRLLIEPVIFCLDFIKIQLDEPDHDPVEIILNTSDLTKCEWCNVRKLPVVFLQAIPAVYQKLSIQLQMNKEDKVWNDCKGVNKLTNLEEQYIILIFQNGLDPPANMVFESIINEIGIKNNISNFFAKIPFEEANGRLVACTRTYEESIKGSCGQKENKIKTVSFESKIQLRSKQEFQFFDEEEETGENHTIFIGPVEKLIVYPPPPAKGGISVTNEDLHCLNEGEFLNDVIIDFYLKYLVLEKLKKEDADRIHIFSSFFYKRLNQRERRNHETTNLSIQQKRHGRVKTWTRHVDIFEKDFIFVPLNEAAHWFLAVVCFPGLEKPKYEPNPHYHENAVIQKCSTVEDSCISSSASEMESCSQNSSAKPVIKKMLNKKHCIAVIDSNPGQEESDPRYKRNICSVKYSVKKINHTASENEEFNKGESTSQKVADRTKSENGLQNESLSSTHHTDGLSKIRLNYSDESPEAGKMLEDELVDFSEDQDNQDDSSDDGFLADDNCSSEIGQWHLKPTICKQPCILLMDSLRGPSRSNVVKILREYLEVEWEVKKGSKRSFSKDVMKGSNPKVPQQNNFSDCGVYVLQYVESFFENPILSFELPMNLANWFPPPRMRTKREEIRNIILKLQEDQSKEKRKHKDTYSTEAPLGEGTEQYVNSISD
# [6] = NIH-3T3 fibroblast cytotoxicity, dose response, cytotoxicity control, cell-based, fluorescence, Alamar Blue, secondary assay (AID 2327); assay type: functional;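 also: NIH-3T3 mouse fibroblasts cultured with fluconazole at 8 µg/mL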
# [7] = C. albicans growth with fluconazole, confirmation, fluorescence, retest (AID 2467); assay type: functional, cell-based
# [8] = target: T2, Corticotropin-releasing factor receptor 2/Corticotropin-releasing factor-binding protein; assay: activators of CRF receptor 2 with binding protein – uHTS hits, confirmation (AID 602473); assay type: functional; settings: read-out: EC50_Mean
# Caspase-3 = target: T5, Caspase-3 (Homo sapiens, UniProt P42574); assay type: functional;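 also: Dose-response selectivity test against caspase-3 for candidate inhibitors of sentrin-specific proteases (SENPs)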
# T5 sequence (P42574 whole entry): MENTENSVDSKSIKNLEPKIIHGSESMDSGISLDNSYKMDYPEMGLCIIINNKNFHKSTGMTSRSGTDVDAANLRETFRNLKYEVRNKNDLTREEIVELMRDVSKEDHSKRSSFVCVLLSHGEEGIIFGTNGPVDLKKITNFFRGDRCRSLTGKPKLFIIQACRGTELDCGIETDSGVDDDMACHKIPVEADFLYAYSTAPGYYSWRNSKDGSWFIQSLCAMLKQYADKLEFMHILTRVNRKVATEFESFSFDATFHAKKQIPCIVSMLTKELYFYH
# Mu-type opioid receptor = Mu-type opioid receptor (Homo sapiens, UniProt P35372); assay type: functional, cell-based;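 also: U2OS cells with beta-arrestin recruitment to OPRM1 by beta-gal complementation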
# Mu-type opioid receptor, sequence (P35372 whole entry): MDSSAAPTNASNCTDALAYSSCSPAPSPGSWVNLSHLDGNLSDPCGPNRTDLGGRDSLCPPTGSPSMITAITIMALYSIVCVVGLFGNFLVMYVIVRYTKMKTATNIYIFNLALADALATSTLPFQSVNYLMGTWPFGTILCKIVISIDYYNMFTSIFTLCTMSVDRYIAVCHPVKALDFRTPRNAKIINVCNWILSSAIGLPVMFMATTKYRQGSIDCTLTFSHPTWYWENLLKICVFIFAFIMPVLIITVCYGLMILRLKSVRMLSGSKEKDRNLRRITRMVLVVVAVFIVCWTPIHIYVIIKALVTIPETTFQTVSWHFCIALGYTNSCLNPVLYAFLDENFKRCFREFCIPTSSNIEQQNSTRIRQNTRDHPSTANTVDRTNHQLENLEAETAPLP
# [9] = target: 5-hydroxytryptamine receptor 2A (Mus musculus, UniProt P35363); assay type: functional, cell-based;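 also: CHO-K1 cells with tagged receptor and beta-arrestin; agonist potency measured as compound-induced activation of the receptor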
# 5-hydroxytryptamine receptor 2A, sequence (P35363 whole entry): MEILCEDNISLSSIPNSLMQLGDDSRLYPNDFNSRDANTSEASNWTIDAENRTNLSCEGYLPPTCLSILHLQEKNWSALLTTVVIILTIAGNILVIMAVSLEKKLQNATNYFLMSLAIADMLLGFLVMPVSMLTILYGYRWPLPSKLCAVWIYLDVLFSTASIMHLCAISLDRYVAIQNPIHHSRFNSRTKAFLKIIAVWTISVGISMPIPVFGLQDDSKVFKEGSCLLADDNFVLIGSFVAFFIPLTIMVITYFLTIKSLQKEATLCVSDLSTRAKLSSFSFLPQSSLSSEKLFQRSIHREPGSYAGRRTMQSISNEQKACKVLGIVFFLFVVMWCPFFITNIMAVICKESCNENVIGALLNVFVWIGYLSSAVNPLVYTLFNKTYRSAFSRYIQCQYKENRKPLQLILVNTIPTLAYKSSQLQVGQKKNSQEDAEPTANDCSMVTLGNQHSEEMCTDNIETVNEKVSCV
# [10] = target: T6, Low molecular weight phosphotyrosine protein phosphatase (Homo sapiens, UniProt P24666); assay type: functional; settings: read-out: IC50_Mean
# T6 sequence (P24666 whole entry): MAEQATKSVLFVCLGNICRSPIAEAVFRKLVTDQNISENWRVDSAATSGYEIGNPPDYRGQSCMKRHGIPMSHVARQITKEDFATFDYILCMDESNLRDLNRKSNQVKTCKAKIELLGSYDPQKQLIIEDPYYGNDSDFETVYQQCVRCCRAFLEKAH
# [11] = target: T6, Low molecular weight phosphotyrosine protein phosphatase; assay type: functional; settings: read-out: IC50_Mean; remark: listed apart in the source
# [12] = target: T7, Methionyl-tRNA synthetase, putative (Trypanosoma brucei brucei, UniProt Q38C91); assay type: functional, Trypanosoma brucei brucei strain 927/4 GUTat10.1
# T7 sequence (Q38C91 whole entry): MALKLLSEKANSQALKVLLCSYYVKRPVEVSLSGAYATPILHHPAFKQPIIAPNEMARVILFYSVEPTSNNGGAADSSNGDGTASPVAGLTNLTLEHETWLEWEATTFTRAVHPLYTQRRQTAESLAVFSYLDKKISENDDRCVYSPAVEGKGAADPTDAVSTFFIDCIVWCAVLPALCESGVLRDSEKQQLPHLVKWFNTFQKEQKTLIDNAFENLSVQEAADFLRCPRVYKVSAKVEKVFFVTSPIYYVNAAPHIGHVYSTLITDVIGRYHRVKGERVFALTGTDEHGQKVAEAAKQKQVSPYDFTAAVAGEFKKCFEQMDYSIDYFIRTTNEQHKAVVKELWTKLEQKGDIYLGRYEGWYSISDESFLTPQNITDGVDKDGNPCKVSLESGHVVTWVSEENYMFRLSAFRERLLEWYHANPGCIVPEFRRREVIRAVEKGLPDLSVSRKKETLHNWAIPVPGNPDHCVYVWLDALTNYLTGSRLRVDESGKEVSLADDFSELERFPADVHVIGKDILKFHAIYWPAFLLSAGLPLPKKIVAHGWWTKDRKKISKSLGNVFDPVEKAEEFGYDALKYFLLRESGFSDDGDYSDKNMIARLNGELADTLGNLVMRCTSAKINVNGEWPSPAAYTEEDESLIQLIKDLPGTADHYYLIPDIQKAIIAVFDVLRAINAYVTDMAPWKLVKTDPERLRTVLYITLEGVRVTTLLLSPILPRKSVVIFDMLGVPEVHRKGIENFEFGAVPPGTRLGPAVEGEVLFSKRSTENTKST
# [13] = target: T7, Methionyl-tRNA synthetase, putative; assay type: functional, Trypanosoma brucei brucei strain 927/4 GUTat10.1; remark: listed apart in the source
# [14] = Counterscreen for inhibitors of Trypanosoma brucei methionyl tRNA synthetase (MetRS): Luminescence-based cell-based high throughput dose response assay to identify compounds that are cytotoxic to Jurkat human T lymphocyte cells.; assay type: functional
smiles,measurement,setting,value
Cc1ccc(SCC(=O)Nc2cc([N+](=O)[O-])ccc2O)cc1,IC50,[1],13.5 µM (active)
same,IC50,[2],29.3 µM (active)
same,IC50,[3],2.34 µM (active)
same,IC50,[4],31.3 µM (active)
same,IC50,[5],25.6 µM (active)
same,EC50,[6],> 150 µM (inconclusive)
same,EC50,[7],46 nM (active)
same,EC50,[8],23.4 µM (active)
same,IC50,Caspase-3,17.9 µM (active)
COc1ccc(CN2CCN(C(=O)c3ccco3)CC2)cc1OC,EC50,Mu-type opioid receptor,92.5 µM (inactive)
same,EC50,[9],2.8 µM (active)
Fc1cccc(CN2CCN(c3ncccn3)CC2)c1,EC50,Mu-type opioid receptor,92.5 µM (inactive)
same,EC50,[9],0.277 µM (active)
COc1ccc(Nc2nc(-c3ccc4c(c3)NC(=O)CO4)cs2)cc1,IC50,[10],13.1 µM (active)
same,IC50,[11],54.9 µM (inactive)
COc1ccc(NC(=O)CC2C(=O)N(C)C(=S)N2CCc2ccc(F)cc2)cc1 (centres undefined),IC50,[12],6.36 µM (active)
same,IC50,[13],17.4 µM (inactive)
same,IC50,[14],63.3 µM (inactive)
O=C(Cc1cccc(Cl)c1)Nc1ccc(Br)cc1,IC50,[12],7.49 µM (active)
same,IC50,[13],11.1 µM (inactive)
same,IC50,[14],83.3 µM (inactive)
O=C1CC(c2ccccc2)SC(N(c2ccccc2)c2ccccc2)=N1 (centres undefined),IC50,[1],> 20 µM (inactive)
same,IC50,[3],7.25 µM (active)
same,EC50,[8],> 53 µM (inactive)
Cc1ccc(NC(=O)COC(=O)CCc2c[nH]c3ccccc23)c(C)c1,IC50,[1],8.75 µM (active)
same,IC50,[3],4.32 µM (active)
same,EC50,[8],> 53 µM (inactive)
Cc1nccc(O)c1Cc1c(Cl)cccc1Cl,IC50,[10],11.5 µM (active)
same,IC50,[11],2.34 µM (active)
